Measurements as given in ChEMBL document CHEMBL1201862, “PubChem BioAssay data set” (2004).
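Where inhibition never reached the appropriate level, the endpoint shown equals the highest concentration tested. Otherwise, values were interpolated linearly from a five-concentration, 48-hour dose response in 96-well plates. GI50 marks 50% less growth.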 Activity calls are given as the source filed them. Rule as the data show it: active = GI50 up to about 1.1 µM and inactive = higher.

Columns and labels:
Assay in all cases: growth of human tumour cells (NCI), 48 h
786-0 = system: 786-0
A498 = system: A498
A549 = system: A549
ACHN = system: ACHN
BT-549 = system: BT-549
CAKI-1 = system: CAKI-1
COLO 205 = system: COLO 205
DU-145 = system: DU-145
EKVX = system: EKVX
HCC 2998 = system: HCC 2998
HCT-116 = system: HCT-116
HCT-15 = system: HCT-15
HL-60 = system: HL-60
HOP-62 = system: HOP-62
HOP-92 = system: HOP-92
HT-29 = system: HT-29
Hs-578T = system: Hs-578T
IGROV-1 = system: IGROV-1
K562 = system: K562
KM12 = system: KM12
LOX IMVI = system: LOX IMVI
M14 = system: M14
MCF7 = system: MCF7
MDA-MB-231 = system: MDA-MB-231
MDA-MB-435 = system: MDA-MB-435
MDA-N = system: MDA-N
MOLT-4 = system: MOLT-4
Malme-3M = system: Malme-3M
NCI-H226 = system: NCI-H226
NCI-H23 = system: NCI-H23
NCI-H460 = system: NCI-H460
NCI-H522 = system: NCI-H522
NCI/ADR-RES = system: NCI/ADR-RES
OVCAR-3 = system: OVCAR-3
OVCAR-4 = system: OVCAR-4
OVCAR-5 = system: OVCAR-5
OVCAR-8 = system: OVCAR-8
PC-3 = system: PC-3
RPMI-8226 = system: RPMI-8226
RXF 393 = system: RXF 393
SF-268 = system: SF-268
SF-295 = system: SF-295
SK-MEL-28 = system: SK-MEL-28
SK-MEL-2 = system: SK-MEL-2
SK-MEL-5 = system: SK-MEL-5
SK-OV-3 = system: SK-OV-3
SN12C = system: SN12C
SNB-19 = system: SNB-19
SNB-75 = system: SNB-75
SW-620 = system: SW-620
T47D = system: T47D
TK-10 = system: TK-10
U-251 = system: U-251
UACC-257 = system: UACC-257
UACC-62 = system: UACC-62
UO-31 = system: UO-31

CN(CCc1ccc(N)cc1)[C@H]1CCCC[C@H]1N1CCCC1
GI50 (786-0): > 100 µM (inactive)
GI50 (A498): > 100 µM (inactive)
GI50 (A549): > 100 µM (inactive)
GI50 (ACHN): > 100 µM (inactive)
GI50 (BT-549): > 100 µM (inactive)
GI50 (CAKI-1): > 100 µM (inactive)
GI50 (COLO 205): > 100 µM (inactive)
GI50 (DU-145): > 100 µM (inactive)
GI50 (EKVX): > 100 µM (inactive)
GI50 (HCC 2998): 51.9 µM (inactive)
GI50 (HCT-116): > 100 µM (inactive)
GI50 (HCT-15): > 100 µM
GI50 (HL-60): > 100 µM (inactive)
GI50 (HOP-62): > 100 µM (inactive)
GI50 (HOP-92): > 100 µM (inactive)
GI50 (HT-29): 78.2 µM (inactive)
GI50 (Hs-578T): > 100 µM (inactive)
GI50 (IGROV-1): > 100 µM (inactive)
GI50 (K562): 70.3 µM (inactive)
GI50 (KM12): > 100 µM (inactive)
GI50 (LOX IMVI): > 100 µM (inactive)
GI50 (M14): > 100 µM (inactive)
GI50 (MCF7): > 100 µM (inactive)
GI50 (MDA-MB-231): > 100 µM (inactive)
GI50 (MDA-MB-435): > 100 µM (inactive)
GI50 (MDA-N): > 100 µM (inactive)
GI50 (MOLT-4): 98.4 µM (inactive)
GI50 (Malme-3M): > 100 µM (inactive)
GI50 (NCI-H226): > 100 µM (inactive)
GI50 (NCI-H23): > 100 µM (inactive)
GI50 (NCI-H460): > 100 µM (inactive)
GI50 (NCI-H522): > 100 µM (inactive)
GI50 (NCI/ADR-RES): > 100 µM (inactive)
GI50 (OVCAR-3): > 100 µM (inactive)
GI50 (OVCAR-4): > 100 µM (inactive)
GI50 (OVCAR-5): > 100 µM (inactive)
GI50 (OVCAR-8): > 100 µM (inactive)
GI50 (PC-3): > 100 µM (inactive)
GI50 (RPMI-8226): 66.7 µM (inactive)
GI50 (RXF 393): > 100 µM (inactive)
GI50 (SF-268): > 100 µM (inactive)
GI50 (SF-295): > 100 µM (inactive)
GI50 (SK-MEL-28): > 100 µM (inactive)
GI50 (SK-MEL-2): > 100 µM (inactive)
GI50 (SK-MEL-5): > 100 µM (inactive)
GI50 (SK-OV-3): > 100 µM (inactive)
GI50 (SN12C): > 100 µM (inactive)
GI50 (SNB-19): > 100 µM (inactive)
GI50 (SNB-75): > 100 µM (inactive)
GI50 (SW-620): > 100 µM (inactive)
GI50 (T47D): > 100 µM (inactive)
GI50 (TK-10): > 100 µM (inactive)
GI50 (U-251): > 100 µM (inactive)
GI50 (UACC-257): > 100 µM (inactive)
GI50 (UACC-62): > 100 µM (inactive)
GI50 (UO-31): > 100 µM (inactive)
